Measured values as given in ChEMBL document CHEMBL2346659, “Anti-adipogenic diarylheptanoids from Alnus hirsuta f. sibirica on 3T3-L1 cells” (Bioorg Med Chem Lett, 2013).
One block for each molecule: values may come before it. Active and inactive are the calls of the source. No cut-off for these calls is given here.

Key:
3T3-L1 [1] = test: Inhibition of differentiation of mouse 3T3L1 cells assessed as lipid accumulation at 10 uM after 8 days by using Oil Red O staining by spectrophotometry relative to control; assay type: functional
3T3-L1 [2] = test: Inhibition of differentiation of mouse 3T3L1 cells assessed as lipid accumulation at 50 uM after 8 days by using Oil Red O staining by spectrophotometry relative to control; assay type: functional
3T3-L1 [3] = test: Inhibition of differentiation of mouse 3T3L1 cells assessed as lipid accumulation at 100 uM after 8 days by using Oil Red O staining by spectrophotometry relative to control; assay type: functional
3T3-L1 [4] = test: Induction of differentiation of mouse 3T3L1 cells assessed as lipid accumulation at 10 uM after 8 days by using Oil Red O staining by spectrophotometry relative to control; assay type: cell-based; details: 3t3-l1, 192 h
3T3-L1 [5] = test: Cytotoxicity against mouse 3T3L1 cells at 100 uM; assay type: cell-based; details: 3t3-l1, 100 µM
3T3-L1 [6] = test: Inhibition of differentiation of mouse 3T3L1 cells assessed as reduction of lipid accumulation after 8 days by using Oil Red O staining by spectrophotometry relative to control; assay type: functional, cell-based
3T3-L1 [7] = test: Inhibition of differentiation of mouse 3T3L1 cells assessed as lipid accumulation at 100 uM after 8 days by using Oil Red O staining by spectrophotometry relative to control in presence of troglitazone; assay type: functional; parameters: scale not given: the % may be the effect or the level left
3T3-L1 [8] = test: Antiadipogenic activity in mouse 3T3L1 cells assessed as inhibition of C/EBPalpha expression at 10 to 50 uM after 8 days by Western blot analysis; assay type: functional, cell-based
3T3-L1 [9] = test: Antiadipogenic activity in mouse 3T3L1 cells assessed as inhibition of PPAR-gamma expression at 10 to 50 uM after 8 days by Western blot analysis; assay type: functional, cell-based

Structure (SMILES): O=C(O[C@@H]1Cc2c(O)cc(O)cc2O[C@@H]1c1cc(O)c(O)c(O)c1)c1cc(O)c(O)c(O)c1 [EPIGALOCATECHIN GALLATE]
Lipid accumulation relative to control (3T3-L1 [1]): 94.9% | Lipid accumulation (% of control) (3T3-L1 [2]): 81.9% | Lipid accumulation (% of control) (3T3-L1 [3]): 54.5%

Activity (3T3-L1 [4]): 107.1%
Structure (SMILES): Cc1c(C)c2c(c(C)c1O)CCC(C)(COc1ccc(CC3SC(=O)NC3=O)cc1)O2 (stereo not drawn) [TROGLITAZONE]

Structure (SMILES): Oc1ccc(CC[C@@H](O)C[C@H](O)CCc2ccc(O)cc2)cc1 [(+)-HANNOKINOL]
Lipid accumulation relative to control (3T3-L1 [1]): 90.2% | Activity (3T3-L1 [5]): Toxic | Lipid accumulation (% of control) (3T3-L1 [2]): 61.2%

Structure (SMILES): Oc1ccc(CCCC[C@@H](O)CCc2ccc(O)c(O)c2)cc1O
Lipid accumulation relative to control (3T3-L1 [1]): 84.6% | Lipid accumulation (% of control) (3T3-L1 [2]): 86.4% | Lipid accumulation (% of control) (3T3-L1 [3]): 90%

Structure (SMILES): O=C(/C=C/CCc1ccc(O)c(O)c1)CCc1ccc(O)c(O)c1 [DEHYDROHIRSUTANONOL]
Lipid accumulation relative to control (3T3-L1 [1]): 86.1% | Lipid accumulation (% of control) (3T3-L1 [2]): 45.7% | Lipid accumulation (% of control) (3T3-L1 [3]): 38.6% | inhibition (3T3-L1 [6]): Dose-dependent effect

Structure (SMILES): O=C(CCc1ccc(O)cc1)C[C@H](CCc1ccc(O)cc1)O[C@@H]1OC[C@@H](O)[C@H](O)[C@H]1O
Activity (3T3-L1 [7]): 20.8% | Lipid accumulation relative to control (3T3-L1 [1]): 81.7% | inhibition (3T3-L1 [8]): Active | Lipid accumulation (% of control) (3T3-L1 [2]): 28.9% | Lipid accumulation (% of control) (3T3-L1 [3]): 14.4% | inhibition (3T3-L1 [9]): Active | inhibition (3T3-L1 [6]): Dose-dependent effect

Structure (SMILES): O=C(/C=C/C=C/c1ccc(O)c(O)c1)CCc1ccc(O)c(O)c1
Lipid accumulation relative to control (3T3-L1 [1]): 104.4% | Lipid accumulation (% of control) (3T3-L1 [2]): 108.9% | Lipid accumulation (% of control) (3T3-L1 [3]): 103%

Structure (SMILES): O=C(CCc1ccc(O)cc1)C[C@@H](O)CCc1ccc(O)c(O)c1
Lipid accumulation relative to control (3T3-L1 [1]): 77.3% | Lipid accumulation (% of control) (3T3-L1 [2]): 70.5% | Lipid accumulation (% of control) (3T3-L1 [3]): 57.6% | inhibition (3T3-L1 [6]): Dose-dependent effect

Structure (SMILES): OC[C@H]1O[C@@H](O[C@H](CCCCc2ccc(O)cc2)CCc2ccc(O)cc2)[C@H](O)[C@@H](O)[C@@H]1O
Lipid accumulation relative to control (3T3-L1 [1]): 76% | Lipid accumulation (% of control) (3T3-L1 [2]): 103.1% | Lipid accumulation (% of control) (3T3-L1 [3]): 98.1%

Structure (SMILES): O=C(/C=C/c1ccc(O)c(O)c1)C[C@@H](O)CCc1ccc(O)cc1
Lipid accumulation relative to control (3T3-L1 [1]): 92.6% | Lipid accumulation (% of control) (3T3-L1 [2]): 81.8% | Lipid accumulation (% of control) (3T3-L1 [3]): 58.8% | inhibition (3T3-L1 [6]): Dose-dependent effect

Structure (SMILES): O=C(CCc1ccc(O)c(O)c1)C[C@@H](O)CCc1ccc(O)c(O)c1 [HIRSUTANONOL]
Lipid accumulation relative to control (3T3-L1 [1]): 83.9% | Lipid accumulation (% of control) (3T3-L1 [2]): 72.6% | Lipid accumulation (% of control) (3T3-L1 [3]): 59.9% | inhibition (3T3-L1 [6]): Dose-dependent effect

Structure (SMILES): O=C(/C=C/CCc1ccc(O)c(O)c1)/C=C/c1ccc(O)c(O)c1
Lipid accumulation relative to control (3T3-L1 [1]): 86.5% | Lipid accumulation (% of control) (3T3-L1 [2]): 66.5% | Lipid accumulation (% of control) (3T3-L1 [3]): 36.5% | inhibition (3T3-L1 [6]): Dose-dependent effect
